Laboratory results from patent US20250332139A1, “PS[…] AND THEIR USE FOR TREATING […] AND NE[…] DISORDERS” (Transcend Therapeutics, Inc., priority 2021, published 2025).
Where two headings read alike, the source gives them in different places.

Experiments:
[1] = test system: participants with PTSD; assay: IMPACT-1 open-label study (Part A); type: in vivo, human; set-up: reduction in Anxiety Sub-Scale of MADRS: concentration or dose not given beside the values
Experimental: The purpose of this pilot study is to evaluate the safety, tolerability, and efficacy of methylone in adult participants with PTSD. The study is conducted in two parts. Part A is open-label enrolling up to 15 evaluable participants with PTSD. After completion of Part A, enrollment will begin for Part B, which is double-blind, placebo-controlled and enrolling up to 64 evaluable participants with PTSD.
Brief Summary: This is a two-part study to assess methylone for the management of the symptoms of PTSD. Part A is an open-label, non-controlled assessment in up to 15 evaluable participants with PTSD to assess early safety and efficacy and to confirm procedures included in the blinded portion (Part B) of the study. After completion of Part A, enrollment for Part B will begin in up to 64 participants. Part B is identical to Part A with the exception of the inclusion of a placebo arm in Part B.
For each participant in Parts A and B, the study consists of: • Screening Period (Day-28 to Day-4): Informed consent, eligibility assessment, and enrolment of eligible participants. • Baseline/Preparatory Session (Day-3 to Day-1): Baseline assessments, confirmation of eligibility, and a preparatory psychoeducation session leading to enrolment confirmation. • Treatment Period (Day 1 to Day 24): Four weekly dose sessions, with associated remote sessions. The dose sessions last at least 8 hours, or until all effects (physical and psychological) have resolved (whichever is longer). Each dose session is followed by a safety phone call 1 day after dosing and efficacy assessments 2 days after dosing. Each dosing period is video recorded for quality and training purposes. The videos may be reviewed to ensure the Mentor is adhering to the Mentor training. • Follow-Up Period (Day 29 to Day 64): Follow-Up visits for safety and efficacy occur at 1, 2, 3 and 6 weeks post-final study drug administration. In addition, there are Mentor-Led Reflection Sessions 1, 2 and 3 weeks post-final study drug administration. Participants are contacted via telephone on Day 57 (±2 days) for Follow-Up. • Discontinuations: Participants who discontinue prematurely are asked to return for an extra visit to duplicate the 6-week end-of-study (EOS) visit.
Each dose was given as an initial dose, followed by a second dose 90 minutes later. During the dosing session, participants were accompanied by a trained Mentor who provided non-directive support. After the 4-week treatment period, participants attended follow-up visits at 1, 2, 3, and 6 weeks following the last dose. Safety was assessed via standard measures including adverse events. PTSD symptoms were assessed via Clinician-Administered PTSD Scale for DSM-5 (CAPS-5), depressive symptoms were assessed via Montgomery-Åsberg Depression Rating Scale (MADRS). Anti-anxiety efficacy was evaluated using the Anxiety Sub-Scale of MADRS, namely, questions (Items 3, 4, 5, 6) that address four anxiety items (inner tension, reduced sleep, reduced appetite, concentration difficulties) Changes from baseline were analyzed using a paired t-test p-values.
Methods: The IMPACT-1 study is a multi-center, two-part clinical trial. Part A has completed and was an open-label evaluation involving 14 participants with PTSD. Eligible participants are adults with severe PTSD (CAPS-5 ≥35) who had failed at least 1 prior treatment (pharmacotherapy and/or psychotherapy) for PTSD. […] Throughout each dosing session, participants were provided non-directive psychological support by a trained mental health practitioner. Following the 4-week treatment period, participants were followed for an additional 6 weeks to evaluate the durability of the therapeutic effect. PTSD symptom improvement was evaluated on the CAPS-5. Functioning was assessed via the 3 domains (school/work, family life, social life) of the Sheehan Disability Scale (SDS). Global improvement was measured by the CGI-I. Safety was assessed by monitoring adverse events, vital signs, and C-SSRS. […]

[2] = target: SERT (Rattus norvegicus, UniProt P31652); assay: [3H]5HT uptake saturation curves with or without methylone; type: biochemical
Chain of SERT (P31652 whole entry): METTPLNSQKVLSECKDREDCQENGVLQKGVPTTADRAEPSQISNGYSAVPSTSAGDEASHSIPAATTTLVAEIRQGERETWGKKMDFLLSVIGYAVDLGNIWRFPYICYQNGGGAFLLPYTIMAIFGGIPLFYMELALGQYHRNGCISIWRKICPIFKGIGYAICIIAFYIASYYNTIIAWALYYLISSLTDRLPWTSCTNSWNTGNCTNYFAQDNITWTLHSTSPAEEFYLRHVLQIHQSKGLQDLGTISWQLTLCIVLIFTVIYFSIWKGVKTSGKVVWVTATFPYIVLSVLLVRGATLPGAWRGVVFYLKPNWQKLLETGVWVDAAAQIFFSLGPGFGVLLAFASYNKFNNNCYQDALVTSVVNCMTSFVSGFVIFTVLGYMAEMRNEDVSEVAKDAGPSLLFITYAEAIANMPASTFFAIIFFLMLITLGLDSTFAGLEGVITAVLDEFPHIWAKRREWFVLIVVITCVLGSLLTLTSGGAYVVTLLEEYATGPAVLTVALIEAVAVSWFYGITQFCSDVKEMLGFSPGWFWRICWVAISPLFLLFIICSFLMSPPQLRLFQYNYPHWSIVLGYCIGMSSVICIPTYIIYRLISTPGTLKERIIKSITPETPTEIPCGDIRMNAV
Excerpt: If high concentrations of [^3H] […] Three hot saturation curves were run with the [^3H]

[3] = cited from earlier work
[4] = target: T1, dopamine transporter (DAT) (Rattus norvegicus, UniProt P23977); assay: Competitive radioligand binding, [3H]WIN35428, rat brain lysates
T1 construct: from tissue; synaptosomes for uptake and release
T1 sequence (P23977 whole entry): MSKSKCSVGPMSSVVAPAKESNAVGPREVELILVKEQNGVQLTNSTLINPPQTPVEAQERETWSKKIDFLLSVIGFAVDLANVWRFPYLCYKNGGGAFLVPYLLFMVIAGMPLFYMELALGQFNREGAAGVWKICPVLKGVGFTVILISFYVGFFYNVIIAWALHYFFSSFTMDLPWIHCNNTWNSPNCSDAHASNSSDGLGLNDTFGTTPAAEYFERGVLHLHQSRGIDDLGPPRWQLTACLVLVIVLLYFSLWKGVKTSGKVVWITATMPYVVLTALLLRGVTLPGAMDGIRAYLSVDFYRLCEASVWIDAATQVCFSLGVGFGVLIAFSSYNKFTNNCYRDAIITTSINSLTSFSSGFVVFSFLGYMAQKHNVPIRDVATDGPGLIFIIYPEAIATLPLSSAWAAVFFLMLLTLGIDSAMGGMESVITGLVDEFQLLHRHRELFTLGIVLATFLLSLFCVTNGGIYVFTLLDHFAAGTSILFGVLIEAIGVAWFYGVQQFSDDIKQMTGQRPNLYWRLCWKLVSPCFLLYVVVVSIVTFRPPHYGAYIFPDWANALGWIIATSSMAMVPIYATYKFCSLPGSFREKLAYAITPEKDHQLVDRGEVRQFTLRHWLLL
Experimental: Radioligands used were: [^3H] Citalopram (PerkinElmer NET1039250UC); [^3H] Nisoxetine (PerkinElmer NET1084250UC); [^3H] WIN35428 (PerkinElmer NET1033250UC). […] Rat brains were dissected and tissue was homogenized in cold lysis buffer, centrifged at 100×g for 2 min and the supernatant was placed in a fresh tube. Supernatant was centrifuged at 13,000×g for 10 min at 4° C. to re-pellet the cell lysate. The pellet was resuspended in fresh wash buffer (50 mM Tris-HCl; 5 mM MgCl2; 5 mM EDTA) and centrifuged a third time. The pellet was then resuspended in wash buffer containing 10% sucrose as a cryoprotectant, divided into aliquots (0.3 mL) and stored at −80° C. A sample of the homogenate was analyzed for protein content using the SIGMA® BCA assay. On the day of the assay, the membrane preparation was thawed, and the pellet resuspended in final assay buffer. […] To each well was added 150 μL membranes, 50 μL of non-specific compound or buffer and 50 μL radioligand solution in buffer. […] Ki was subsequently calculated using the Cheng-Prusoff equation.

Q: With `CNC(C)C(=O)c1ccc2c(c1)OCO2` (centres unmarked) [methylone, 3,4-methylenedioxy-N-methylcathinone] as the compound, how does the “decrease in CAPS-5 score” value ([1]; Day 3) read?
A: The value was 8.4 points.

Q: And the “decrease in MADRS score” value ([1]; Day 3)?
A: Its value is 8.2 points.

Q: And the “reduction in Anxiety Sub-Scale of MADRS” value ([1]; Day 3)?
A: The value was 20%.

Q: What about the “reduction in Anxiety Sub-Scale of MADRS” value ([1]; Day 10) of the same compound?
A: The value was 43%.

Q: What about the “reduction in Anxiety Sub-Scale of MADRS” value ([1]; Day 17) of the same compound?
A: Its value is 50%.

Q: What about the “reduction in Anxiety Sub-Scale of MADRS” value ([1]; Day 24) of the same compound?
A: Its value is 57%.

Q: And the “reduction in Anxiety Sub-Scale of MADRS” value ([1]; Day 29)?
A: Its value is 56%.

Q: What about the “reduction in Anxiety Sub-Scale of MADRS” value ([1]; Day 36) of the same compound?
A: Its value is 66%.

Q: What about the “reduction in Anxiety Sub-Scale of MADRS” value ([1]; Day 43) of the same compound?
A: The value was 64%.

Q: And the “SDS Family Life score, mean (SD)” value ([1]; Day 64)?
A: Its value is 3.1 (3.45).

Q: What about the “SDS Mean Overall score, mean (SD)” value ([1]; Day 64) of the same compound?
A: The value was 3.1 (3.12).

Q: What about the “SDS Social Life score, mean (SD)” value ([1]; Day 64) of the same compound?
A: Its value is 3.2 (3.39).

Q: And the “SDS Work/School score, mean (SD)” value ([1]; Day 64)?
A: Its value is 3.3 (3.78).

Q: What about the “reduction in Anxiety Sub-Scale of MADRS” value ([1]; Day 64) of the same compound?
A: Its value is 66%.

Q: And the “PSQI total score change” value ([1]; end of study (6 weeks after the last dose))?
A: The value was −4.0 points.

Q: And the “drug-related SAEs” value ([1]; human, in vivo, oral, 4 weeks)?
A: The value was “No drug-related SAEs occurred”.

Q: And the “effect on Bmax of [3H]5HT uptake” value [2]?
A: The value was “no decrease in Bmax”.

Q: What about the “type of interaction at the SERT” value ([2]; two concentrations of methylone) of the same compound?
A: Its value is “competitive”.

Q: What about the “AUC24 hr, Mean” value ([3]; 50 mg oral, N = 3) of the same compound?
A: Its value is “(989, 4.5%) hr*μg/L”.

Q: And the “AUCinf, Mean” value ([3]; 50 mg oral, N = 3)?
A: The value was “(1063, 6.9%) hr*μg/L”.

Q: What about the “Cmax, Mean” value ([3]; 50 mg oral, N = 3) of the same compound?
A: The value was “(153.0, 18.9%) μg/L”.

Q: What about the “Half-life, Mean” value ([3]; 50 mg oral, N = 3) of the same compound?
A: The value was “(6.3, 15%) hr”.

Q: What about the “AUC10 hr, Mean” value ([3]; 100 mg oral, N = 6) of the same compound?
A: Its value is “(1586, 23.1%) hr*μg/L”.

Q: What about the “AUC24 hr, Mean” value ([3]; 100 mg oral, N = 6) of the same compound?
A: The value was “(2268, 20.4%) hr*μg/L”.

Q: What about the “AUCinf, Mean” value ([3]; 100 mg oral, N = 6) of the same compound?
A: Its value is “(2444, 18.3%) hr*μg/L”.

Q: And the “Cmax, Mean” value ([3]; 100 mg oral, N = 6)?
A: Its value is “(303.6, 45%) μg/L”.

Q: What about the “Half-life, Mean” value ([3]; 100 mg oral, N = 6) of the same compound?
A: Its value is “(6.1, 23.3%) hr”.

Q: And the “Tmax, Min-Max” value ([3]; 100 mg oral, N = 6)?
A: Its value is “(0.75-3) hr”.

Q: What about the “AUC10 hr, Mean” value ([3]; 150 mg oral, N = 5) of the same compound?
A: Its value is “(2236, 29.0%) hr*μg/L”.

Q: What about the “AUC24 hr, Mean” value ([3]; 150 mg oral, N = 5) of the same compound?
A: The value was “(3349, 36.5%) hr*μg/L”.

Q: What about the “AUCinf, Mean” value ([3]; 150 mg oral, N = 5) of the same compound?
A: Its value is “(3777, 42.2%) hr*μg/L”.

Q: What about the “Cmax, Mean” value ([3]; 150 mg oral, N = 5) of the same compound?
A: The value was “(354.6, 30.7%) μg/L”.

Q: And the “Half-life, Mean” value ([3]; 150 mg oral, N = 5)?
A: Its value is “(6.8, 23.3%) hr”.

Q: And the “Tmax, Min-Max” value ([3]; 150 mg oral, N = 5)?
A: The value was “(1.5-4) hr”.

Q: What about the “AUC10 hr, Mean” value ([3]; 200 mg oral, N = 7) of the same compound?
A: Its value is “(3310, 17.9%) hr*μg/L”.

Q: What about the “AUC24 hr, Mean” value ([3]; 200 mg oral, N = 7) of the same compound?
A: Its value is “(4796, 23.2%) hr*μg/L”.

Q: And the “AUCinf, Mean” value ([3]; 200 mg oral, N = 7)?
A: Its value is “(5267, 25.1%) hr*μg/L”.

Q: And the “Cmax, Mean” value ([3]; 200 mg oral, N = 7)?
A: Its value is “(603.6, 20.6%) μg/L”.

Q: What about the “Half-life, Mean” value ([3]; 200 mg oral, N = 7) of the same compound?
A: Its value is “(6.6, 15.1%) hr”.

Q: And the “Tmax, Min-Max” value ([3]; 200 mg oral, N = 7)?
A: The value was “(1-4) hr”.

Q: What about the Ki [4] of the same compound?
A: The Ki was 5.73 µM.
